This is an account of results in PubChem BioAssay (NCI).

Structures are written as SMILES.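 These data come from cells grown in 96-well plates and exposed to compound for 48 hours at five concentrations. Here, GI50 denotes the concentration required for 50% inhibition of growth. TGI is the concentration that stops growth completely.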 Some results are limits rather than exact numbers.

What all share (assay): NCI-60 cell line screen, 48 h
The test system of assay [1] is OVCAR-5 ovarian.
Assay [2] concerns HL-60(TB) leukemia.
The test system of assay [3] is TK-10 renal.
Assay [4] relates to HCT-15 colon.
For assay [5], the system named is NCI-H23 lung.
Assay [6] has as its system ACHN renal.
In assay [7] the test system is SF-539 CNS.
Assay [8] has as its system SNB-19 CNS.
Assay [9] concerns OVCAR-4 ovarian.

For `CN1CC(C(=O)C2C(=O)c3ccccc3C2=O)C(=O)C(=O)C(C(=O)C2C(=O)c3ccccc3C2=O)C1` (configuration not stated), the TGI in [1], in assay [2], in assay [3], in [4], in assay [5] and in [6] was over 100 µM throughout. In addition, the TGI in assay [7] and in assay [8] was over 100 µM each time.
For the compound `CCCCOC(=O)NC(=O)c1cn(CCSCCOC(=O)NCCCCCCNC(=O)OCCSCCn2cc(C(=O)NC(=O)OCCCC)c(=O)[nH]c2=O)c(=O)[nH]c1=O`, the TGI in assay [1] is over 100 µM; in assay [2] it was over 100 µM; in assay [9], over 100 µM; in assay [3] it was 92.4 µM; in assay [4], over 100 µM; in [5], 94.5 µM. Also, the TGI in assay [6], in [7] and in [8] was over 100 µM throughout.
As for `COc1cc2c(cc1O)CC13CCC(=O)N1CCc1cc(OC)c(O)c-2c13` (configuration not stated), the TGI in assay [1], in assay [2], in assay [9], in assay [3], in assay [4] and in [5] was over 68.1 µM in each case. The TGI in [6], in assay [7] and in assay [8] was over 68.1 µM each time.
With `CC(=O)CCCCO`, the TGI in assay [1], in assay [2], in assay [9], in assay [3], in [4] and in assay [5] was over 100 µM in each case. The TGI in [6], in assay [7] and in assay [8] was over 100 µM each time.
As to `COc1ccccc1NC(=O)C1=C(C)NC(C)=C(C(=O)Nc2ccccc2OC)C1c1ccc(C)cc1`, the TGI in [1], in assay [9], in assay [3], in assay [4], in assay [5] and in assay [6] was over 100 µM in each case. Further, the TGI in assay [7] and in [8] was over 100 µM each time.
Regarding `Fc1ccc(C2SCc3nc4ccccc4n32)cc1` (configuration not stated), the TGI in [1] was 99.4 µM; in assay [2], 71.8 µM; in [9] it was over 100 µM; in assay [3], 72 µM; in assay [4] it was over 100 µM; in assay [5], over 100 µM. Also, the TGI in assay [6] is over 100 µM; in assay [7], over 100 µM; in [8], 9.64 µM.
For the compound `O=C(CC(=O)N1N=C(N2c3ccccc3Sc3ccccc32)CC1c1ccccc1)Nc1ccc(Cl)cc1` (configuration not stated), the TGI in assay [1], in assay [9], in assay [3], in assay [4], in assay [5] and in [6] was over 100 µM throughout. For the same compound, the TGI in assay [7] and in assay [8] was over 100 µM in each case.
With `NC(=O)C(c1ccccc1)N1CCOCC1` (configuration not stated), the TGI in assay [1], in [2], in assay [9], in assay [3], in [4] and in assay [5] was over 100 µM each time. Moreover, the TGI in [6] and in [7] was over 100 µM throughout.
`O=C(OCC1CO1)c1cccs1` (configuration not stated): the TGI in assay [1], in [2], in [9], in assay [3], in assay [4] and in assay [5] was over 100 µM in each case. For the same compound, the TGI in [6] and in assay [8] was over 100 µM in each case.
As to `C=C1C(=O)O[C@H]2[C@H]1CC/C(COC(=O)NCCc1c[nH]c3ccc(OC)cc13)=C\CC[C@@]1(C)O[C@@H]21`, the GI50 was 1.82 µM in [1]; 1.69 µM in assay [9]; 1.61 µM in assay [3]; 1.14 µM in assay [4]; 2.25 µM in assay [5]; 1.38 µM in assay [6]. For the same compound, the GI50 in assay [7] is 1.78 µM; in assay [8] it was 10 µM. Also, the TGI in assay [1] came out at 4 µM; in assay [9], 5.09 µM; in [3] it was 3.11 µM; in assay [4], 2.45 µM; in [5] it was 5.84 µM; in assay [6], 2.72 µM. Besides, the TGI in assay [7] was 4.01 µM; in assay [8], 21.9 µM.
With `O=C(C(=O)N1CC2C=CC1CC2)c1c[nH]c2ccccc12` (configuration not stated), the TGI in assay [1], in assay [2], in [9], in assay [3], in assay [4] and in [6] was over 100 µM each time. In addition, the TGI in assay [7] and in assay [8] was over 100 µM throughout.
Consider `CC1=CCC23C(C1)OC(Br)(C=CC2(C)O)C3(C)C` (configuration not stated), for which the TGI in [1], in assay [2], in assay [9], in assay [3], in assay [5] and in assay [6] was over 100 µM throughout. The same compound gave a TGI in assay [7] of over 100 µM.
